Values quoted from earlier work, collected in US10335452B2, “Method of treating patients with hepatorenal syndrome type 1” (Mallinckrodt Hospital Products IP Limited, priority 2014, dated 2019).
Positions of bridges follow the written chain, without caps; N, C: chain ends. Residues, ends and D or L forms follow the SMILES beside them.

Tests used:
HRS-1 patients = conditions: each listed reaction occurred in more than this share of patients
[1] = in vivo

Row | SMILES | Adverse reaction, share of patients (vomiting, abdominal pain, nausea, diarrhea, intestinal ischemia, dyspnea, sneezing, pulmonary edema and fluid overload) (HRS-1 patients) | duration of action [1]
1 | NCCCC[C@H](NC(=O)[C@@H]1CCCN1C(=O)[C@@H]1CSSC[C@H](NC(=O)CNC(=O)CNC(=O)CN)C(=O)N[C@@H](Cc2ccc(O)cc2)C(=O)N[C@@H](Cc2ccccc2)C(=O)N[C@@H](CCC(N)=O)C(=O)N[C@@H](CC(N)=O)C(=O)N1)C(=O)NCC(N)=O [terlipressin, N—[N—(N-glycylglycyl)glycyl]-8-L-lysinevasopressin] (H-GGGCYFQNCPKG-NH2; disulfide 4-9 (inferred)) | more than 10% | 2 to 10 h
2 | NC(=O)CC[C@@H]1NC(=O)[C@H](Cc2ccccc2)NC(=O)[C@H](Cc2ccc(O)cc2)NC(=O)[C@@H](N)CSSC[C@@H](C(=O)N2CCC[C@H]2C(=O)N[C@@H](CCCN=C(N)N)C(=O)NCC(N)=O)NC(=O)[C@H](CC(N)=O)NC1=O [vasopressin] | – | 0.5 to 1 h
